molecular target: SIK2 (Homo sapiens, UniProt Q9H0K1); test: SIK2 Enzymatic Assay High Version 2 (High ATP); type: biochemical
Outline: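 At room temperature, enzyme (6 nM, 2× final) was preincubated with compound for 30 min, then 6 mM ATP and 400 μM HDAC5tide (both 2× final) were added for 2 h. ADP formed was measured by ADP-Glo Max (2 h reagent, 1 h detection) using luminescence.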

SIK2, sequence (Q9H0K1 whole entry, species assumed): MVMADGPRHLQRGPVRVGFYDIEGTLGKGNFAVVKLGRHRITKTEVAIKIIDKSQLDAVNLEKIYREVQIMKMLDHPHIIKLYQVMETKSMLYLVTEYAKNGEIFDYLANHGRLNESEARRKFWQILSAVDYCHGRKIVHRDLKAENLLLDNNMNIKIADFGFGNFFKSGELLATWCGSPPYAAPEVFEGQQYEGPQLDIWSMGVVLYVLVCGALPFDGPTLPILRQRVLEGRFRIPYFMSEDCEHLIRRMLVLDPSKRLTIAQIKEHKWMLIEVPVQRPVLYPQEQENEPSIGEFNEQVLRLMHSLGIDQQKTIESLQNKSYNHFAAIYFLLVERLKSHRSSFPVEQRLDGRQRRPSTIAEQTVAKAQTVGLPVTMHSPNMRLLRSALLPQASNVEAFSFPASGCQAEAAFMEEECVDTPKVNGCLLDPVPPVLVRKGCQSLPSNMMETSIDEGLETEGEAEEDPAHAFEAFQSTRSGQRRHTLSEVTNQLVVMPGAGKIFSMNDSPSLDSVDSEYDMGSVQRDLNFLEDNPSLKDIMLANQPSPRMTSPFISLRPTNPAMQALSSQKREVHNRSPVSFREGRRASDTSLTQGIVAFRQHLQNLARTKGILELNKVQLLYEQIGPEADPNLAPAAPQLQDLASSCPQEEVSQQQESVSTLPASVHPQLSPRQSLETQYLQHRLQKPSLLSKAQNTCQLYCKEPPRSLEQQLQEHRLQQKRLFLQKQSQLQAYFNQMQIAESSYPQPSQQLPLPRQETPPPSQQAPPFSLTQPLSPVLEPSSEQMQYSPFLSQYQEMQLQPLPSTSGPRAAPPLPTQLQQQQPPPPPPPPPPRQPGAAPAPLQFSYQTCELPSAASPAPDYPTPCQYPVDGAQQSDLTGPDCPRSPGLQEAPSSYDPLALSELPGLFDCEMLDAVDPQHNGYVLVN

`Cc1cc(-c2ccn3nc(Nc4ccncn4)cc3c2)c(O[C@H]2C[C@H]3COC[C@@H](C2)N3)cn1` [Example 395, 5-[2-methyl-5-[[(1R,5S,7s)-3-oxa-9-azabicyclo[3.3.1]nonan-7-yl]oxy]-4-pyridyl]-N-pyrimidin-4-yl-pyrazolo[1,5-a]pyridin-2-amine] and `Cc1cc(Nc2cc3cc(-c4cc(C)ncc4O[C@H]4C[C@H]5COC[C@@H](C4)N5)ccn3n2)ncn1` [Example 396, 5-[2-methyl-5-[[(1R,5S,7s)-3-oxa-9-azabicyclo[3.3.1]nonan-7-yl]oxy]-4-pyridyl]-N-(6-methylpyrimidin-4-yl)pyrazolo[1,5-a]pyridin-2-amine] are within 1.5-fold of each other in IC50: 0.851 nM for the first, 1.1 nM for the second.

Compared with `Cc1cc(-c2ccn3nc(Nc4cc(F)n(C)n4)cc3c2)c(O[C@H]2C[C@H]3COC[C@@H](C2)N3)cn1` [Example 397, N-(5-fluoro-1-methyl-pyrazol-3-yl)-5-[2-methyl-5-[[(1S,5R,7s)-3-oxa-9-azabicyclo[3.3.1]nonan-7-yl]oxy]-4-pyridyl]pyrazolo[1,5-a]pyridin-2-amine], `Cc1cc(-c2ccn3nc(Nc4ccc(=O)n(C)n4)cc3c2)c(O[C@H]2C[C@H]3COC[C@@H](C2)N3)cn1` [Example 401, 2-methyl-6-[[5-[2-methyl-5-[[(1S,5R,7s)-3-oxa-9-azabicyclo[3.3.1]nonan-7-yl]oxy]-4-pyridyl]pyrazolo[1,5-a]pyridin-2-yl]amino]pyridazin-3-one] is 12-fold higher in IC50: 1.33 nM for the first, 16.1 nM for the second. The first is the more potent here.

First: Cc1cc(-c2ccn3nc(Nc4cn(C)nc4F)cc3c2)c(O[C@H]2C[C@H]3COC[C@@H](C2)N3)cn1 [Example 398, N-(3-fluoro-1-methyl-pyrazol-4-yl)-5-[2-methyl-5-[[(1S,5R,7s)-3-oxa-9-azabicyclo[3.3.1]nonan-7-yl]oxy]-4-pyridyl]pyrazolo[1,5-a]pyridin-2-amine]
Second: Cc1cc(-c2ccn3nc(Nc4nn(C)cc4F)cc3c2)c(O[C@H]2C[C@H]3COC[C@@H](C2)N3)cn1 [Example 399, N-(4-fluoro-1-methyl-pyrazol-3-yl)-5-[2-methyl-5-[[(1S,5R,7s)-3-oxa-9-azabicyclo[3.3.1]nonan-7-yl]oxy]-4-pyridyl]pyrazolo[1,5-a]pyridin-2-amine]
The IC50 of the first is lower: < 0.847 nM for the first, 44.2 nM for the second.

Compared with `Cc1cc(-c2ccn3nc(NC(=O)C4CC4)c(C)c3c2)c(O[C@H]2C[C@H]3COC[C@@H](C2)N3)cn1` [Example 400, N-[3-methyl-5-[2-methyl-5-[[(1S,5R,7s)-3-oxa-9-azabicyclo[3.3.1]nonan-7-yl]oxy]-4-pyridyl]pyrazolo[1,5-a]pyridin-2-yl]cyclopropanecarboxamide], `Cc1cc(-c2ccn3nc(N)cc3c2)c(O[C@H]2C[C@H]3COC[C@@H](C2)N3)cn1` [Example 405, 5-(5-(((1R,5S,7s)-3-oxa-9-azabicyclo[3.3.1]nonan-7-yl)oxy)-2-methylpyridin-4-yl)pyrazolo[1,5-a]pyridin-2-amine] is lower in IC50: 0.912 nM for the first, < 0.847 nM for the second. The second is the more potent here.

Compared with `Cc1cc(-c2ccn3nc(Nc4ncccn4)cc3c2)c(O[C@H]2C[C@H]3COC[C@@H](C2)N3)cn1` [Example 402, 5-[2-methyl-5-[[(1S,5R,7s)-3-oxa-9-azabicyclo[3.3.1]nonan-7-yl]oxy]-4-pyridyl]-N-pyrimidin-2-yl-pyrazolo[1,5-a]pyridin-2-amine], `Cc1cc(-c2ccn3nc(Nc4ncc(F)cn4)cc3c2)c(O[C@H]2C[C@H]3COC[C@@H](C2)N3)cn1` [Example 404, N-(5-fluoropyrimidin-2-yl)-5-[2-methyl-5-[[(1S,5R,7s)-3-oxa-9-azabicyclo[3.3.1]nonan-7-yl]oxy]-4-pyridyl]pyrazolo[1,5-a]pyridin-2-amine] is 1.7-fold lower in IC50: 98.4 nM for the first, 58 nM for the second. The second is the more potent here.

Compared with `Cc1cc(-c2ccn3nc(Nc4cc(C(F)(F)F)nn4C)cc3c2)c(O[C@H]2C[C@H]3COC[C@@H](C2)N3)cn1` [Example 403, 5-(5-(((1R,5S,7s)-3-oxa-9-azabicyclo[3.3.1]nonan-7-yl)oxy)-2-methylpyridin-4-yl)-N-(1-methyl-3-(trifluoromethyl)-1H-pyrazol-5-yl)pyrazolo[1,5-a]pyridin-2-amine], `Cc1cc(-c2ccn3nc(Nc4cccc(C(F)(F)F)n4)cc3c2)c(O[C@@H]2C[C@H]3COC[C@@H](C2)N3C)cn1` [Example 406, 5-[2-methyl-5-[[(1S,5R,7s)-9-methyl-3-oxa-9-azabicyclo[3.3.1]nonan-7-yl]oxy]-4-pyridyl]-N-[6-(trifluoromethyl)-2-pyridyl]pyrazolo[1,5-a]pyridin-2-amine] is 7.8-fold lower in IC50: 14.3 nM for the first, 1.83 nM for the second.

Going from `CNC(=O)c1cccc(Nc2cc3cc(-c4cc(C)ncc4O[C@H]4C[C@H]5COC[C@@H](C4)N5C)ccn3n2)n1` [Example 407, N-methyl-6-[[5-[2-methyl-5-[[(1S,5R,7s)-9-methyl-3-oxa-9-azabicyclo[3.3.1]nonan-7-yl]oxy]-4-pyridyl]pyrazolo[1,5-a]pyridin-2-yl]amino]pyridine-2-carboxamide] to `CNC(=O)c1ccnc(Nc2cc3cc(-c4cc(C)ncc4O[C@H]4C[C@H]5COC[C@@H](C4)N5C)ccn3n2)c1` [Example 409, N-methyl-2-[[5-[2-methyl-5-[[(1S,5R,7s)-9-methyl-3-oxa-9-azabicyclo[3.3.1]nonan-7-yl]oxy]-4-pyridyl]pyrazolo[1,5-a]pyridin-2-yl]amino]pyridine-4-carboxamide], the IC50 falls from 8.49 nM to < 0.847 nM. The second is the more potent here.

Going from `Cc1cc(-c2ccn3nc(Nc4ccnnc4)cc3c2)c(O[C@H]2C[C@H]3COC[C@@H](C2)N3C)cn1` [Example 408, 5-[2-methyl-5-[[(1S,5R,7s)-9-methyl-3-oxa-9-azabicyclo[3.3.1]nonan-7-yl]oxy]-4-pyridyl]-N-pyridazin-4-yl-pyrazolo[1,5-a]pyridin-2-amine] to `Cc1cc(-c2ccn3nc(Nc4cncnc4)cc3c2)c(O[C@H]2C[C@H]3COC[C@@H](C2)N3C)cn1` [Example 415, 5-[2-methyl-5-[[(1S,5R,7s)-9-methyl-3-oxa-9-azabicyclo[3.3.1]nonan-7-yl]oxy]-4-pyridyl]-N-pyrimidin-5-yl-pyrazolo[1,5-a]pyridin-2-amine], the IC50 falls from 1 nM to < 0.847 nM. The second is the more potent here.

Going from `Cc1cc(-c2ccn3nc(Nc4ccnc(C)n4)cc3c2)c(O[C@H]2C[C@H]3COC[C@@H](C2)N3C)cn1` [Example 410, 5-[2-methyl-5-[[(1R,5S,7s)-9-methyl-3-oxa-9-azabicyclo[3.3.1]nonan-7-yl]oxy]-4-pyridyl]-N-(2-methylpyrimidin-4-yl)pyrazolo[1,5-a]pyridin-2-amine] to `Cc1cc(-c2ccn3nc(Nc4ccncn4)cc3c2)c(O[C@H]2C[C@H]3COC[C@@H](C2)N3C)cn1` [Example 420, 5-[2-methyl-5-[[(1R,5S,7s)-9-methyl-3-oxa-9-azabicyclo[3.3.1]nonan-7-yl]oxy]-4-pyridyl]-N-pyrimidin-4-yl-pyrazolo[1,5-a]pyridin-2-amine], the IC50 rises from < 0.847 nM to 2.36 nM. The first is the more potent here.

First: Cc1cc(-c2ccn3nc(Nc4ccc(C(F)(F)F)cn4)cc3c2)c(O[C@H]2C[C@H]3COC[C@@H](C2)N3C)cn1 [Example 411, 5-[2-methyl-5-[[(1S,5R,7s)-9-methyl-3-oxa-9-azabicyclo[3.3.1]nonan-7-yl]oxy]-4-pyridyl]-N-[5-(trifluoromethyl)-2-pyridyl]pyrazolo[1,5-a]pyridin-2-amine]
Second: Cc1cc(-c2ccn3nc(Nc4cc(C(F)(F)F)ccn4)cc3c2)c(O[C@H]2C[C@H]3COC[C@@H](C2)N3C)cn1 [Example 413, 5-[2-methyl-5-[[(1R,5S,7s)-9-methyl-3-oxa-9-azabicyclo[3.3.1]nonan-7-yl]oxy]-4-pyridyl]-N-[4-(trifluoromethyl)-2-pyridyl]pyrazolo[1,5-a]pyridin-2-amine]
The IC50 of the first is higher: 1.52 nM for the first, < 0.847 nM for the second.

Compared with `Cc1cc(-c2ccn3nc(Nc4cn(C)nc4F)cc3c2)c(O[C@H]2C[C@H]3COC[C@@H](C2)N3C)cn1` [Example 412, N-(3-fluoro-1-methyl-pyrazol-4-yl)-5-[2-methyl-5-[[(1S,5R,7s)-9-methyl-3-oxa-9-azabicyclo[3.3.1]nonan-7-yl]oxy]-4-pyridyl]pyrazolo[1,5-a]pyridin-2-amine], `Cc1cc(-c2ccn3nc(Nc4cn(C)nn4)cc3c2)c(O[C@H]2C[C@H]3COC[C@@H](C2)N3C)cn1` [Example 414, 5-[2-methyl-5-[[(1R,5S,7s)-9-methyl-3-oxa-9-azabicyclo[3.3.1]nonan-7-yl]oxy]-4-pyridyl]-N-(1-methyltriazol-4-yl)pyrazolo[1,5-a]pyridin-2-amine] is 17-fold higher in IC50: 0.883 nM for the first, 15.2 nM for the second. The first is the more potent here.

Compared with `Cc1cnc(Nc2cc3cc(-c4cc(C)ncc4O[C@H]4C[C@H]5COC[C@@H](C4)N5C)ccn3n2)cn1` [Example 416, 5-[2-methyl-5-[[(1S,5R,7s)-9-methyl-3-oxa-9-azabicyclo[3.3.1]nonan-7-yl]oxy]-4-pyridyl]-N-(5-methylpyrazin-2-yl)pyrazolo[1,5-a]pyridin-2-amine], `Cc1cc(Nc2cc3cc(-c4cc(C)ncc4O[C@H]4C[C@H]5COC[C@@H](C4)N5C)ccn3n2)ncn1` [Example 421, 5-[2-methyl-5-[[(1R,5S,7s)-9-methyl-3-oxa-9-azabicyclo[3.3.1]nonan-7-yl]oxy]-4-pyridyl]-N-(6-methylpyrimidin-4-yl)pyrazolo[1,5-a]pyridin-2-amine] is higher in IC50: < 0.847 nM for the first, 12.2 nM for the second. The first is the more potent here.

`Cc1cc(-c2ccn3nc(Nc4cc(C)nc(C)n4)cc3c2)c(O[C@H]2C[C@H]3COC[C@@H](C2)N3C)cn1` [Example 417, N-(2,6-dimethylpyrimidin-4-yl)-5-[2-methyl-5-[[(1S,5R,7s)-9-methyl-3-oxa-9-azabicyclo[3.3.1]nonan-7-yl]oxy]-4-pyridyl]pyrazolo[1,5-a]pyridin-2-amine] and `Cc1cc(-c2ccn3nc(Nc4cnccn4)cc3c2)c(O[C@H]2C[C@H]3COC[C@@H](C2)N3C)cn1` [Example 418, 5-[2-methyl-5-[[(1S,5R,7s)-9-methyl-3-oxa-9-azabicyclo[3.3.1]nonan-7-yl]oxy]-4-pyridyl]-N-pyrazin-2-yl-pyrazolo[1,5-a]pyridin-2-amine] cannot be ordered by IC50: < 0.847 nM for the first, < 0.847 nM for the second.

In the case of `Cc1cc(-c2ccn3nc(Nc4cccnn4)cc3c2)c(O[C@H]2C[C@H]3COC[C@@H](C2)N3C)cn1` [Example 419, 5-[2-methyl-5-[[(1R,5S,7s)-9-methyl-3-oxa-9-azabicyclo[3.3.1]nonan-7-yl]oxy]-4-pyridyl]-N-pyridazin-3-yl-pyrazolo[1,5-a]pyridin-2-amine], the IC50 is reported as < 0.847 nM.
